Laboratory results from patent EP0973790B1, “ESTRA-5(10),7-DIENES WITH ESTROGENIC ACTIVITY” (Wyeth, priority 1997, dated 1998).

How the values were obtained:
Immature rats = assay: In vivo uterotropic activity; details: for Uterine Weight (mg) ± SD: n=6/group
[1] = target: human estrogen receptor (hER-α) (Homo sapiens, UniProt P03372); assay: Estrogen receptor binding, whole cell test procedure; details: comparison values for known estrogens
Chain of human estrogen receptor (hER-α) (P03372 whole entry): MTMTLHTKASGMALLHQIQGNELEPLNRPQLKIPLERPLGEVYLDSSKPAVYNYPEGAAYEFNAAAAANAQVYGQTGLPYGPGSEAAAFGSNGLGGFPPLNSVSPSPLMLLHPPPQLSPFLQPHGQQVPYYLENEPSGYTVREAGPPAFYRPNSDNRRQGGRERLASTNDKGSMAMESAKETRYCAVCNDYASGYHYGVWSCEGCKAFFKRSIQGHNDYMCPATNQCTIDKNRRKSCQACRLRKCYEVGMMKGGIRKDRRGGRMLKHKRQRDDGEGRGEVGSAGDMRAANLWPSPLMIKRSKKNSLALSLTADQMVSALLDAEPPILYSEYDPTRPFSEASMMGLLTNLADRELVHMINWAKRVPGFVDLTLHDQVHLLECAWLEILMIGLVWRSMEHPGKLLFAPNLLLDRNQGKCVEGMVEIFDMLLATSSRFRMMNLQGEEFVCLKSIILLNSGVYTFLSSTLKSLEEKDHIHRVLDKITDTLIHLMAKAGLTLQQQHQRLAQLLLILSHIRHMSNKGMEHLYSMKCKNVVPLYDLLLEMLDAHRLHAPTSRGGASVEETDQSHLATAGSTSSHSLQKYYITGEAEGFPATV

Question: For `C#C[C@]1(O)CC[C@H]2[C@@H]3CCc4cc(O)ccc4[C@H]3CC[C@@]21C` [Ethinyl Estradiol, reference compound], which “Uterine Weight (mg) ± SD” value (Immature rats; 0.5 µg, three days) is on record?
Answer: The value was 101.2 ± 2.8 mg.

Question: `C[C@]12CC[C@@H]3c4ccc(O)cc4CC[C@H]3[C@@H]1CCC2=O` [estrone, reference compound] was tested. Which EC50 (Immature rats; estimated in similar test procedures) did it give?
Answer: The EC50 was 0.2 mg/kg.

Question: How did the “Uterine Weight (mg) ± SD” value (Immature rats; 1 µg, three days S.C.) turn out when `CC12CCC3C(=CCC4=C3CCC(O)C4)C1CCC2=O` (stereo not drawn) [5A, estra-5(10),7-dien-3α-ol-17-one] was run?
Answer: Its value is 28.7 ± 2.7 mg.

Question: And the “Uterine Weight (mg) ± SD” value (Immature rats; 10 µg, three days S.C.)?
Answer: Its value is 33.3 ± 4.4 mg.

Question: And the “Uterine Weight (mg) ± SD” value (Immature rats; 100 µg, three days S.C.)?
Answer: The value was 66.5 ± 4.7 mg.

Question: What about the “Uterine Weight (mg) ± SD” value (Immature rats; 500 µg, three days S.C.) of the same molecule?
Answer: The value was 78.9 ± 13.6 mg.

Question: What about the “estimated EC50” value (Immature rats; uterine stimulation, in words relative to 5B) of the same molecule?
Answer: The value was “somewhat lower”.

Question: How did the Ki [1] turn out when `C[C@]12CCc3c(ccc4cc(O)ccc34)[C@@H]1CCC2=O` [equilenen] was run?
Answer: Its Ki is 0.375 µM.

Question: Which “Uterine Weight (mg) ± SD” value (Immature rats; 0.1 µg, three days S.C.) does the source give for `CC12CCC3C(=CCC4=C3CCC(O)C4)C1CCC2=O` (stereo not drawn) [5B, estra-5(10),7-dien-3β-ol-17-one] here?
Answer: The value was 34.1 ± 6.2 mg.

Question: What about the “Uterine Weight (mg) ± SD” value (Immature rats; 1 µg, three days S.C.) of the same molecule?
Answer: Its value is 31.7 ± 6.6 mg.

Question: What about the “Uterine Weight (mg) ± SD” value (Immature rats; 10 µg, three days S.C.) of the same molecule?
Answer: The value was 43.5 ± 6.9 mg.

Question: What about the “Uterine Weight (mg) ± SD” value (Immature rats; 100 µg, three days S.C.) of the same molecule?
Answer: Its value is 79.7 ± 5.8 mg.

Question: And the “Uterine Weight (mg) ± SD” value (Immature rats; 500 µg, three days S.C.)?
Answer: Its value is 82.6 ± 8.6 mg.
